{
  "source": "patent US11896594B2",
  "about": "“Palatable antiparasitic formulations” (Zoetis Services LLC, priority 2018, dated 2024)",
  "test_system": "D. immitis",
  "test": "Prevention of heartworm disease in dogs",
  "type": "in vivo",
  "details": "in vivo, po",
  "note": "“And” between values parts separate entries of the source, which are not always exact repeats. Identical values can stand only once.",
  "data": [
    {"smiles": "CO/N=C1\\C[C@]2(C[C@@H]3C[C@@H](C/C=C(\\C)C[C@@H](C)/C=C/C=C4\\CO[C@@H]5[C@H](O)C(C)=C[C@@H](C(=O)O3)[C@]45O)O2)O[C@H](/C(C)=C/C(C)C)[C@H]1C", "note": "[moxidectin]", "values": [
      {"measurement": "rate of efficacy against ML-resistant D. immitis isolate", "result": "98.8% and 99.5%"}
    ]}
  ]
}
